Data on 22 compounds can be found in patent US11208400B2, “Substituted 6-(1H-pyrazol-1-yl)pyrimidin-4-amine derivatives and uses thereof” (Bayer Aktiengesellschaft, priority 2016, dated 2021).

A value given as a limit tells only on which side of the number the result lay.

The target of this assay is T1, human Npt2a (Homo sapiens, UniProt Q06495).
T1 construct: expressed in transfected cells
T1 sequence (Q06495 1-639): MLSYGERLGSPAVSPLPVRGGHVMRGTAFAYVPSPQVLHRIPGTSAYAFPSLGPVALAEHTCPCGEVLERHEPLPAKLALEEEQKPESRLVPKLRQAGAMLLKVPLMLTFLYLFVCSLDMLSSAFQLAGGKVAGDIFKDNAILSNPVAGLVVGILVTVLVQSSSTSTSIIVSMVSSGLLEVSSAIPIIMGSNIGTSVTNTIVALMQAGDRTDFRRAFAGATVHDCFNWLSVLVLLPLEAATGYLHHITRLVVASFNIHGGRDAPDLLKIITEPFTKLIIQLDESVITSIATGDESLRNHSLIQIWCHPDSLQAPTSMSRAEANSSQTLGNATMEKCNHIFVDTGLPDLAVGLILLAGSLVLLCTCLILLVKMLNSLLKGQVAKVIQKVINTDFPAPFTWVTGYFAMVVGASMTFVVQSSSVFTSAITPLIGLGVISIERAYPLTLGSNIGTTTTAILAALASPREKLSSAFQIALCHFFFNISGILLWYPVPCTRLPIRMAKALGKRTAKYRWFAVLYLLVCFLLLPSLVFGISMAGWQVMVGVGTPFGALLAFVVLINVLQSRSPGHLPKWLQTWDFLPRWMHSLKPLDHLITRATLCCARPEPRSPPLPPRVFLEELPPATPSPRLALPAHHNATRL
In words: Npt2a activity cell based assay, membrane potential dye, CHO T-REx hNpt2a cells. As to conditions: doxycycline-induced, depolarization by sodium phosphate influx, average or median values if tested more than once. In a few lines:
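Cells were doxycycline-induced CHO T-REx hNpt2a, dye-loaded and pretreated 5 min at RT with 1 nM–50 μM compound in Na-free pH 7.4 buffer. IC50 was fit to the post/pre-trigger fluorescence ratio.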
A word on the IC50: it is the concentration that inhibits the measured activity by half. For `CCc1c(Nc2cc(-n3nc(C)c(Cl)c3C)ncn2)nn(C)c1-c1ccc(F)cc1` [Example 99, 6-(4-chloro-3,5-dimethyl-1H-pyrazol-1-yl)-N-[4-ethyl-5-(4-fluorophenyl)-1-methyl-1H-pyrazol-3-yl]pyrimidin-4-amine], the IC50 amounted to 0.05 µM.

In turn, `Cc1nn(-c2cc(Nc3c(C)c(-c4ccccc4)nn3C)ncn2)c(C)c1Cl` [Example 86, 6-(4-chloro-3,5-dimethyl-1H-pyrazol-1-yl)-N-(1,4-dimethyl-3-phenyl-1H-pyrazol-5-yl)pyrimidin-4-amine] had an IC50 of 0.05 µM. `COc1c(C)nn(-c2cc(Nc3c(C)c(-c4ccc(C(F)F)nc4)nn3CC3CC3)ncn2)c1C` [Example 510, N-{1-(cyclopropylmethyl)-3-[6-(difluoromethyl)pyridin-3-yl]-4-methyl-1H-pyrazol-5-yl}-6-(4-methoxy-3,5-dimethyl-1H-pyrazol-1-yl)pyrimidin-4-amine] displayed a 50% inhibitory concentration (IC50) of 0.19 µM. Turning to `Cc1nn(-c2cc(Nc3n[nH]c(-c4ccc(F)cc4)c3C)ncn2)c(C(F)F)c1Cl` [Example 140, 6-[4-chloro-5-(difluoromethyl)-3-methyl-1H-pyrazol-1-yl]-N-[5-(4-fluorophenyl)-4-methyl-1H-pyrazol-3-yl]pyrimidin-4-amine], the half-maximal inhibitory concentration (IC50) stood at 0.023 µM.

The compound `Cc1cc(C)n(-c2cc(Nc3c(C)c(-c4ccc(Br)cc4)nn3C)ncn2)n1` [Example 260, N-[3-(4-bromophenyl)-1,4-dimethyl-1H-pyrazol-5-yl]-6-(3,5-dimethyl-1H-pyrazol-1-yl)pyrimidin-4-amine] had an IC50 of 0.14 µM.

Regarding `Cc1cc(C)n(-c2cc(Nc3nn(C)c(-c4ccc(C#N)cc4)c3C)ncn2)n1` [Example 118, 4-(3-{[6-(3,5-dimethyl-1H-pyrazol-1-yl)pyrimidin-4-yl]amino}-1,4-dimethyl-1H-pyrazol-5-yl)benzonitrile], the IC50 stood at 0.007 µM. In turn, `COc1c(-c2ccc(F)cc2)nn(CC2CC2)c1Nc1cc(-n2nc(C)cc2C)ncn1` [Example 315, N-[1-(cyclopropylmethyl)-3-(4-fluorophenyl)-4-methoxy-1H-pyrazol-5-yl]-6-(3,5-dimethyl-1H-pyrazol-1-yl)pyrimidin-4-amine] showed an IC50 of 0.099 µM. Take `Cc1ccc(-c2nn(CC3CC3)c(Nc3cc(-n4nc(C)c(Cl)c4C)ncn3)c2C)cn1` [Example 397, 6-(4-chloro-3,5-dimethyl-1H-pyrazol-1-yl)-N-[1-(cyclopropylmethyl)-4-methyl-3-(6-methylpyridin-3-yl)-1H-pyrazol-5-yl]pyrimidin-4-amine]: half-maximal inhibition (IC50) was put at 0.092 µM. `Cc1cc(C(F)F)n(-c2cc(Nc3c(C)c(-c4ccc(F)cc4)nn3C)ncn2)n1` [Example 70, 6-[5-(difluoromethyl)-3-methyl-1H-pyrazol-1-yl]-N-[3-(4-fluorophenyl)-1,4-dimethyl-1H-pyrazol-5-yl]pyrimidin-4-amine] yielded an IC50 of 0.036 µM. In turn, `Cc1nn(-c2cc(Nc3c(C)c(-c4ccc(C(F)(F)F)cc4)nn3C)ncn2)c(C)c1C(C)(C)O` [Example 379, 2-{1-[6-({1,4-dimethyl-3-[4-(trifluoromethyl)phenyl]-1H-pyrazol-5-yl}amino)pyrimidin-4-yl]-3,5-dimethyl-1H-pyrazol-4-yl}propan-2-ol] displayed an IC50 of 0.88 µM. Consider `Cc1nn(-c2cc(Nc3c(C)c(-c4ccc(F)cc4)nn3CC3CC3)ncn2)c(C)c1O` [Example 429, 1-(6-{[1-(cyclopropylmethyl)-3-(4-fluorophenyl)-4-methyl-1H-pyrazol-5-yl]amino}pyrimidin-4-yl)-3,5-dimethyl-1H-pyrazol-4-ol], for which the IC50 came to 0.017 µM. Consider `Cc1nn(-c2cc(Nc3nn(CC4CC4)c(-c4ccc(F)cc4)c3C)ncn2)c(C)c1Cl` [Example 170, 6-(4-chloro-3,5-dimethyl-1H-pyrazol-1-yl)-N-[1-(cyclopropylmethyl)-5-(4-fluorophenyl)-4-methyl-1H-pyrazol-3-yl]pyrimidin-4-amine], for which the IC50 was 0.44 µM. The value for `Cc1nn(-c2cc(Nc3c(C)c(-c4ccc(F)cc4)nn3CC3CC3)ncn2)c(C)c1C1(O)CC1` [Example 244, 1-[1-(6-{[1-(cyclopropylmethyl)-3-(4-fluorophenyl)-4-methyl-1H-pyrazol-5-yl]amino}pyrimidin-4-yl)-3,5-dimethyl-1H-pyrazol-4-yl]cyclopropanol] was 0.008 µM; that for `CCc1c(Nc2cc(-n3nc(C)c(C(C)(C)O)c3C)ncn2)nn(CC2CC2)c1-c1ccc(F)cc1` [Example 188, 2-[1-(6-{[1-(cyclopropylmethyl)-4-ethyl-5-(4-fluorophenyl)-1H-pyrazol-3-yl]amino}pyrimidin-4-yl)-3,5-dimethyl-1H-pyrazol-4-yl]propan-2-ol] was 0.71 µM; that for `Cc1nn(-c2cc(Nc3nn(C)c(-c4ccc(F)cc4)c3Cl)ncn2)c(C)c1Cl` [Example 89, 6-(4-chloro-3,5-dimethyl-1H-pyrazol-1-yl)-N-[4-chloro-5-(4-fluorophenyl)-1-methyl-1H-pyrazol-3-yl]pyrimidin-4-amine] was 0.0048 µM. With `CCc1c(-c2ccc(F)cc2)nn(CC2CC2)c1Nc1cc(-n2nc(C)cc2C)ncn1` [Example 121, N-[1-(cyclopropylmethyl)-4-ethyl-3-(4-fluorophenyl)-1H-pyrazol-5-yl]-6-(3,5-dimethyl-1H-pyrazol-1-yl)pyrimidin-4-amine], the IC50 was less than 0.0016 µM. `CCc1c(Nc2cc(-n3cc4c(n3)CCCC4)ncn2)n[nH]c1-c1ccc(F)cc1` [Example 18, N-[4-ethyl-5-(4-fluorophenyl)-1H-pyrazol-3-yl]-6-(4,5,6,7-tetrahydro-2H-indazol-2-yl)pyrimidin-4-amine] had an IC50 of 0.11 µM. For the compound `Cc1c(-c2ccc(F)cc2)nn(CC2CC2)c1Nc1cc(-n2nc3c(c2C)C(O)(C(F)(F)F)CC3)ncn1` (racemic) [Example 403, (±)-2-(6-{[1-(cyclopropylmethyl)-3-(4-fluorophenyl)-4-methyl-1H-pyrazol-5-yl]amino}pyrimidin-4-yl)-3-methyl-4-(trifluoromethyl)-2,4,5,6-tetrahydrocyclopenta[c]pyrazol-4-ol], the half-maximal inhibitory concentration (IC50) was found to be 0.012 µM. The value for `CCc1c(Nc2cc(-n3nc(C)c(C(=O)N4CCC(C(F)F)C4)c3C)ncn2)nn(C)c1-c1ccc(F)cc1` (stereo not shown) [Example 128, [3-(difluoromethyl)pyrrolidin-1-yl][1-(6-{[4-ethyl-5-(4-fluorophenyl)-1-methyl-1H-pyrazol-3-yl]amino}pyrimidin-4-yl)-3,5-dimethyl-1H-pyrazol-4-yl]methanone] was 1.3 µM; that for `CCc1c(-c2ccc(C#N)cc2)nn(C)c1Nc1cc(-n2nc(C)cc2C(F)F)ncn1` [Example 216, 4-[5-({6-[5-(difluoromethyl)-3-methyl-1H-pyrazol-1-yl]pyrimidin-4-yl}amino)-4-ethyl-1-methyl-1H-pyrazol-3-yl]benzonitrile] was 0.012 µM; that for `Cc1nn(-c2cc(Nc3c(C)c(-c4ccc(F)cc4)nn3C)ncn2)c(C)c1C(F)(F)F` [Example 382, 6-[3,5-dimethyl-4-(trifluoromethyl)-1H-pyrazol-1-yl]-N-[3-(4-fluorophenyl)-1,4-dimethyl-1H-pyrazol-5-yl]pyrimidin-4-amine] was 0.035 µM.

For `CCc1c(Nc2cc(-n3nc(C)c4c3CCCC4=O)ncn2)nn(C)c1-c1ccc(F)cc1` [Example 133, 1-(6-{[4-ethyl-5-(4-fluorophenyl)-1-methyl-1H-pyrazol-3-yl]amino}pyrimidin-4-yl)-3-methyl-1,5,6,7-tetrahydro-4H-indazol-4-one], the IC50 stood at 0.057 µM.
